Experimental data reported in US20250270209A1 (INTERLINE THERAPEUTICS, INC., priority 2022, published 2025).

Experiments:
LRRK2 wild type enzyme = LRRK2 wild type enzyme (Homo sapiens, UniProt Q5S007); assay: Biochemical Assay: LRRK2 TR-FRET (LanthaScreen) kinase assay with LRRKtide substrate; settings: LRRK2 Inhibition, Table 8
Method in brief: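 TR-FRET detection (Tb-labelled phospho-LRRKtide antibody, EDTA stop, 30 min) followed a 120 min, 23 °C reaction of 3 nM wild-type human LRRK2 with LRRKtide (400 nM) and ATP (25 μM) in Tris pH 8.0. Compounds: 11-point 3-fold series from 10 μM, 15 min enzyme preincubation.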

[1] = target: T1, wild type LRRK2 overexpressed in recombinant HEK-293T cells (Homo sapiens, UniProt Q5S007); assay: pS935 LRRK2 Cell Assay (HTRF, phospho-LRRK2 Ser935); type: cell-based; settings: LRRK2 Inhibition, Table 8, 2 hours compound incubation
T1 construct: host or cells: HEK293T (transient transfection with pCMV-LRRK2 WT plasmid)
Method in brief: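 Phospho-Ser935 LRRK2 measured by two-antibody HTRF (Eu-cryptate donor, d2 acceptor; 665/615 nm ratio) after overnight detection at 23° C. Before lysis, transiently LRRK2-transfected HEK-293T cells were exposed 2 h at 37° C to a 9-point, 3-fold series from 10 μM, with DMSO at 0.2%.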

Sequence of LRRK2 wild type enzyme (Q5S007 whole entry): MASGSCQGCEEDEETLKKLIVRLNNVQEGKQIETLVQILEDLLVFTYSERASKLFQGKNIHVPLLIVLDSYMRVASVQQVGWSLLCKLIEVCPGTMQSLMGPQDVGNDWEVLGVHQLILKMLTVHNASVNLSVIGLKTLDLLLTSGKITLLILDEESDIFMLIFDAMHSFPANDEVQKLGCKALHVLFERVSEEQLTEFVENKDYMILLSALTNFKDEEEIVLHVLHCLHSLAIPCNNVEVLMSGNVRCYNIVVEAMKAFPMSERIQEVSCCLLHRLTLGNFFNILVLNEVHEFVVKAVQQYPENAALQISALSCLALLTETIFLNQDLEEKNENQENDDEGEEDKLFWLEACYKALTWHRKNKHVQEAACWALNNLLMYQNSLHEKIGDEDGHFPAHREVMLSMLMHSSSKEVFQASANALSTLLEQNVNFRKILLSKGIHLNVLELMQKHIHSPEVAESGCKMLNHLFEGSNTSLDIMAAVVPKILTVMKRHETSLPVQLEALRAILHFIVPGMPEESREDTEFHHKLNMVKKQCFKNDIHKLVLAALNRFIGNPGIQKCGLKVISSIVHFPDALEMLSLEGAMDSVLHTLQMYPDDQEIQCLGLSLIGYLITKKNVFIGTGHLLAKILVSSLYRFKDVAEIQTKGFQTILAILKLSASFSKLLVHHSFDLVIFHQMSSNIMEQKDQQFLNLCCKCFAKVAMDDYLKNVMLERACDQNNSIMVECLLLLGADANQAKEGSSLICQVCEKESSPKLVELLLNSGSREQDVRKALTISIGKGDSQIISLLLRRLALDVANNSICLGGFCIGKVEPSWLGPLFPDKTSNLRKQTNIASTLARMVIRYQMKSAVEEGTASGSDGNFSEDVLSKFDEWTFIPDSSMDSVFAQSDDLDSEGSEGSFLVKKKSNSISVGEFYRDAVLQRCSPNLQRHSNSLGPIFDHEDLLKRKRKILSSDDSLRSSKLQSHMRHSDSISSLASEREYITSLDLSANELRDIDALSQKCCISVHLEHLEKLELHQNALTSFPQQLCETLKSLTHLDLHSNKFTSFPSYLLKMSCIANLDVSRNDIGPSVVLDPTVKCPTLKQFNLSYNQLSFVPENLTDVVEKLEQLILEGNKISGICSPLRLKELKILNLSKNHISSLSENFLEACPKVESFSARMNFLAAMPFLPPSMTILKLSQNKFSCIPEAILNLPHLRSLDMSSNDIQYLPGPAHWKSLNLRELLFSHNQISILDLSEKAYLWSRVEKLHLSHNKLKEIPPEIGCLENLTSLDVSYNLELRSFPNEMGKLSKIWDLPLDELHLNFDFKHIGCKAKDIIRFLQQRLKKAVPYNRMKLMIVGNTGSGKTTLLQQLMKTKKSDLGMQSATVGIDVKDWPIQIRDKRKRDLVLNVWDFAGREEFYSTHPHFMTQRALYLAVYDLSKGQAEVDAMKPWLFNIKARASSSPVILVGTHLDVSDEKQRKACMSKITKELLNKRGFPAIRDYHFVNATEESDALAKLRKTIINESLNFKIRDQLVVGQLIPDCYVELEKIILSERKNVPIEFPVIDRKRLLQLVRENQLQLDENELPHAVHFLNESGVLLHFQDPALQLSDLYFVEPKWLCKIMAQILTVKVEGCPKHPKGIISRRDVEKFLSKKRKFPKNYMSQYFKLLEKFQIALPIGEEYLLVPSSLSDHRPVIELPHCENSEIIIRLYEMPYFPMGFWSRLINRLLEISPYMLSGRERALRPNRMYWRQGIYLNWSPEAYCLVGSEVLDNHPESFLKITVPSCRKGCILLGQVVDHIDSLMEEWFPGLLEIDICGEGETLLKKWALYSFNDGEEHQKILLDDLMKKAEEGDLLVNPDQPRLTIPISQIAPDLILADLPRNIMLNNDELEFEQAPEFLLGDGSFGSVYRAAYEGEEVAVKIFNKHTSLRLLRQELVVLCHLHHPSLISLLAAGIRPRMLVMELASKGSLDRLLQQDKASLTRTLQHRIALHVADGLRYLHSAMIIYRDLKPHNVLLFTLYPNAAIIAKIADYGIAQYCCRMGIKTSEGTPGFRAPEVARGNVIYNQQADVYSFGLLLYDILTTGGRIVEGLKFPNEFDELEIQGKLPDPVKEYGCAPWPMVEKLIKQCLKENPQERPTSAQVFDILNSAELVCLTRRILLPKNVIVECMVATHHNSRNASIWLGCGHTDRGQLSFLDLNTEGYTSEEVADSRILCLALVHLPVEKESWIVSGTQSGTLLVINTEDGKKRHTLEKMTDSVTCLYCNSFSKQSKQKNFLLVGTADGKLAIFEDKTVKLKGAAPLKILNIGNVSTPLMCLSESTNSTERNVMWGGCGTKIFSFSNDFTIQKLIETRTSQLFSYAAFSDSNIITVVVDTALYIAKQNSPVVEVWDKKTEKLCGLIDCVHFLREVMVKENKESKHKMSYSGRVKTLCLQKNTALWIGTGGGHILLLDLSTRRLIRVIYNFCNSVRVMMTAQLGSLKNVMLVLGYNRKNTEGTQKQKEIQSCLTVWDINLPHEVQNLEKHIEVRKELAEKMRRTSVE
T1 sequence (Q5S007 whole entry): as above

Row | SMILES | IC50 (LRRK2 wild type enzyme) [nM] | IC50 [1] [nM]
1 | C[C@@H]1C[C@H](n2c(CC(=O)Nc3cncn(C)c3=O)nc3cnc4ccc(C#N)cc4c32)CCO1 [Compound 223, N-(1-methyl-6-oxo-1,6-dihydro-5-pyrimidinyl){3-[(2R,4R)-2-methyltetahydro-2H-pyran-4-yl]-12-cyano-3,5,8-triazatricyclo[7.4.0.0^2,6]trideca-1,4,6,8,10,12-hexaen-4-yl}acetamide] | 0.316 | 10.8
2 | COc1c(NC(=O)Cc2nc3cnc4ccc(C#N)cc4c3n2[C@@H]2CCO[C@H](C)C2)cnn1C [Compound 224, N-(5-methoxy-1-methyl-4-pyrazolyl){3-[(2R,4R)-2-methyltetrahydro-2H-pyran-4-yl]-12-cyano-3,5,8-triazatricyclo[7.4.0.0^2,6]trideca-1,4,6,8,10,12-hexaen-4-yl}acetamide] | 1.42 | 87.9
3 | C[C@@H]1C[C@H](n2c(CC(=O)Nc3cccn(CCO)c3=O)nc3cnc4ccc(C#N)cc4c32)CCO1 [Compound 225, N-[1-(2-hydroxyethyl)-2-oxo-1,2-dihydro-3-pyridyl]{3-[(2R,4R)-2-methyltetrahydro-2H-pyran-4-yl]-12-cyano-3,5,8-triazatricyclo[7.4.0.0^2,6]trideca-1,4,6,8,10,12-hexaen-4-yl}acetamide] | 0.388 | 104
4 | COc1cc(C)ncc1NC(=O)Cc1nc2cnc3ccc(C#N)cc3c2n1[C@@H]1CCO[C@H](C)C1 [Compound 226, N-(4-methoxy-6-methyl-3-pyridyl){3-[(2R,4R)-2-methyltetrahydro-2H-pyran-4-yl]-12-cyano-3,5,8-triazatricyclo[7.4.0.0^2,6]trideca-1,4,6,8,10,12-hexaen-4-yl}acetamide] | 0.461 | 5.44
5 | COc1ccnc(C)c1NC(=O)Cc1nc2cnc3ccc(C#N)cc3c2n1[C@@H]1CCO[C@H](C)C1 [Compound 227, N-(4-methoxy-2-methyl-3-pyridyl){3-[(2R,4R)-2-methyltetrahydro-2H-pyran-4-yl]-12-cyano-3,5,8-triazatricyclo[7.4.0.0^2,6]trideca-1,4,6,8,10,12-hexaen-4-yl}acetamide] | 0.359 | 14.4
6 | COc1cc(C(F)(F)F)ncc1NC(=O)Cc1nc2cnc3ccc(C#N)cc3c2n1[C@@H]1CCO[C@H](C)C1 [Compound 228, N-[4-methoxy-6-(trifluoromethyl)-3-pyridyl]{3-[(2R,4R)-2-methyltetrahydro-2H-pyran-4-yl]-12-cyano-3,5,8-triazatricyclo[7.4.0.0^2,6]trideca-1,4,6,8,10,12-hexaen-4-yl}acetamide] | 0.36 | 3.17
7 | COc1nn(C)cc1NC(=O)Cc1nc2cnc3ccc(C#N)cc3c2n1[C@@H]1CCO[C@H](C)C1 [Compound 229, N-(3-methoxy-1-methyl-4-pyrazolyl){3-[(2R,4R)-2-methyltetrahydro-2H-pyran-4-yl]-12-cyano-3,5,8-triazatricyclo[7.4.0.0^2,6]trideca-1,4,6,8,10,12-hexaen-4-yl}acetamide] | 0.316 | 6.62
8 | COc1cc(F)ncc1NC(=O)Cc1nc2cnc3ccc(C#N)cc3c2n1[C@@H]1CCO[C@H](C)C1 [Compound 230, N-(6-fluoro-4-methoxy-3-pyridyl){3-[(2R,4R)-2-methyltetrahydro-2H-pyran-4-yl]-12-cyano-3,5,8-triazatricyclo[7.4.0.0^2,6]trideca-1,4,6,8,10,12-hexaen-4-yl}acetamide] | 0.442 | 4.9
9 | Cc1nn(C)cc1NC(=O)Cc1nc2cnc3ccc(C#N)cc3c2n1[C@@H]1CCO[C@H](C)C1 [Compound 231, N-(1-methyl-3-methyl-4-pyrazolyl){3-[(2R,4R)-2-methyltetrahydro-2H-pyran-4-yl]-12-cyano-3,5,8-triazatricyclo[7.4.0.0^2,6]trideca-1,4,6,8,10,12-hexaen-4-yl}acetamide] | 0.621 | 13.6
